Patent USRE47428E1, “Modulators of methyl modifying enzymes, compositions and uses thereof” (Constellation Pharmaceuticals, Inc., priority 2013, dated 2019)
Like-named read-outs stand apart in the source and are kept apart here.

What was measured:
Y641N EZH2 = Y641N EZH2 (Homo sapiens, UniProt Q15910, Y641N); assay: Y641N EZH2 assay, H3K27Me2 oligonucleosomes as substrate; type: biochemical
Method: (§1) Assays were carried out by mixing rPRC2 together with biotinylated oligonucleosome substrates in the presence of the radio-labeled enzyme co-factor, S-adenosyl-L-methionine (^3H SAM) (Perkin Elmer) and monitoring the enzymatically mediated transfer of tritiated methyl groups from ^3H SAM to histone lysine residues. The amount of resulting tritiated methyl histone product was measured by first capturing the biotinylated oligonucleosomes in streptavidin (SAV) coated FlashPlates (Perkin Elmer), followed by a wash step to remove un-reacted ^3H SAM, and then counting on a TopCount NXT 384 well plate scintillation counter (Perkin Elmer). The final assay conditions for EZH2 were as follows: 50 mM Tris Buffer pH 8.5, 1 mM DTT, 69 μM Brij-35 detergent, 5.0 mM MgCl2, 0.1 mg/mL BSA, 0.2 μM ^3H SAM, 0.2 μM biotinylated oligonucleosomes, 3.6 μM H3K27me3 peptide and 2 nM EZH2.
(§2) A 12.5 μL volume of the HMT enzyme, H3K27me3 peptide and oligonucleosome substrate in assay buffer was added to each well of the assay plate using a Multidrop Combi (Thermo-Fisher). Compounds were pre-incubated with the enzyme for 20 min, followed by initiation of the methyltransferase reaction by addition of 12.5 μL of ^3H SAM in assay buffer (final volume=25 μL). The final concentrations of compounds ranged from a top default concentration of 80 μM down to 0.16 μM in ten 2-fold dilution steps. Reactions were carried out for 60 minutes and quenched with 20 μL per well of 1.96 mM SAH, 50 mM Tris pH 8.5, 200 mM EDTA. Stopped reactions were transferred to SAV coated Flash-plates (Perkin Elmer), incubated for 120 min, washed with a plate washer, and then read on the TopCount NXT (1.0 min/well) to measure the amount of methyl histone product formed during the reaction.

EZH2 = EZH2 (Homo sapiens, UniProt Q15910); assay: EZH2 assay: rPRC2 methyltransferase, 3H SAM FlashPlate; type: biochemical; conditions: 0.2 μM 3H SAM, 2 nM EZH2
Method: as §1, §2

[1] = tested on: Karpas422 human lymphoma xenograft; assay: Tumor growth inhibition, subcutaneous Karpas422 human lymphoma xenograft model; type: in vivo, Mus Musculus; conditions: 160 mg/kg; for TGI (%) / T/C (%) / Tumor Size (mm3) on day 25: Karpas422 xenograft; for TGI (%) / T/C (%): CB-17 SCID mice; for TGI (%) / T/C (%) / Significance: day 25; for T/C (%): treated/control mean tumor volume; for Tumor Size (mm3) on day 25: female CB-17 SCID mice, day 25 after start of treatment, Mean ± SEM; for Significance: one-way ANOVA vs vehicle, tumor volume
Method: Number of animals: 50 mice plus spare
Animal supplier: Shanghai SLAC Laboratory Animal Co., LTD.
The Karpas422 tumor cells were maintained in vitro as suspension culture in RPMI1640 medium supplemented with 10% heat inactivated fetal calf serum at 37° C. in an atmosphere of 5% CO2 in air. The tumor cells were routinely subcultured twice weekly. The cells growing in an exponential growth phase were harvested and counted for tumor inoculation.
Each mouse was inoculated subcutaneously at the right flank with the Karpas422 tumor cells (5×10^6) in 0.2 ml of PBS with Matrigel (1:1) for tumor development. Day 23 after tumor inoculation was as day 0 after the start of treatment when the average tumor size reached approximately 300 mm^3. Each group consisted of 10 tumor-bearing mice.
Tumor size was measured three times weekly in two dimensions using a caliper, and the volume was expressed in mm^3 using the formula: V=0.536a×b^2 where a and b are the long and short diameters of the tumor, respectively. The tumor size was then used for calculations of T/C values. The T/C value (in percent) is an indication of antitumor effectiveness; T and C are the mean volumes of the treated and control groups, respectively, on a given day. TGI was calculated for each group using the formula: TGI (%)[1−(Ti−T0)/(Vi−V0)]×100; Ti is the average tumor volume of a treatment group on a given day, T0 is the average tumor volume of the treatment group on the day of treatment start, Vi is the average tumor volume of the vehicle control group on the same day with Ti, and V0 is the average tumor volume of the vehicle group on the day of treatment start.
Experimental Endpoint and Sample Collection
1). Plasma, tumor and muscle in EPZ-6438 group were collected on day 16 after the start of treatment at 6 h after dosing. Plasma, tumor and muscle in vehicle, CPI-524369, CPI-524416 and CPI-591780 groups were collected on day 25 after the start of treatment at 1 h after dosing. 2). All the blood was taken from each animal with EDTA-K2 as anticoagulant. Plasma was divided into two parts. The first part was for PK analysis; the second part was frozen for backup. 3). Tumor was divided into three parts. The first part was snap-frozen for PK; the second part was snap-frozen for PD analysis; the third part was frozen for backup. 4). Muscle was divided into two parts. The first part was snap-frozen for PK; the second part was frozen for backup.
Tumor Growth Inhibition Analysis

[2] = rPRC2, biotinylated oligonucleosomes, read-out: EZH2 IC50
[3] = Y641N EZH2 mutant enzyme, H3K27Me2 oligonucleosomes, read-out: Y641N EZH2 IC50
[4] = EZH2 IC50, rPRC2, biotinylated oligonucleosomes

Sequence of EZH2 (Q15910 whole entry): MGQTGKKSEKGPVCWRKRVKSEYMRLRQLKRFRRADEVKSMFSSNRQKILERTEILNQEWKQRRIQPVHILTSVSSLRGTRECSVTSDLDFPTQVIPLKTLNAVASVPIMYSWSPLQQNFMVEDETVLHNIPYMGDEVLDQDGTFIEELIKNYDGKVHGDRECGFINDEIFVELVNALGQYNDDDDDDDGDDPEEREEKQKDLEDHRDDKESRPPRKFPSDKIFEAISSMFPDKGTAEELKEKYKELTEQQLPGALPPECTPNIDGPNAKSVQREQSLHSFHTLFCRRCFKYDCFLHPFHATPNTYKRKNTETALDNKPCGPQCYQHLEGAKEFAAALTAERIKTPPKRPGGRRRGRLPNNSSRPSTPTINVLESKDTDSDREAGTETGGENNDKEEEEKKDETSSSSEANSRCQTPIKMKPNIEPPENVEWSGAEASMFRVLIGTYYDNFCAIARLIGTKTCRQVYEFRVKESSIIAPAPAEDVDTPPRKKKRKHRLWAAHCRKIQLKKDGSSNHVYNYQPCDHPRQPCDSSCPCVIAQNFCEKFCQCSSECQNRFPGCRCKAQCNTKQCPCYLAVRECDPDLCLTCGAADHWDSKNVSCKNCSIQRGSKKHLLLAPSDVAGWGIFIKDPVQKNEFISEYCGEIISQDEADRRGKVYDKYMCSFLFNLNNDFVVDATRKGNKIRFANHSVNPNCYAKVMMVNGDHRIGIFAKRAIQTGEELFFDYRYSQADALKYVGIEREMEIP
Sequence of EZH2 (O75530 whole entry partner): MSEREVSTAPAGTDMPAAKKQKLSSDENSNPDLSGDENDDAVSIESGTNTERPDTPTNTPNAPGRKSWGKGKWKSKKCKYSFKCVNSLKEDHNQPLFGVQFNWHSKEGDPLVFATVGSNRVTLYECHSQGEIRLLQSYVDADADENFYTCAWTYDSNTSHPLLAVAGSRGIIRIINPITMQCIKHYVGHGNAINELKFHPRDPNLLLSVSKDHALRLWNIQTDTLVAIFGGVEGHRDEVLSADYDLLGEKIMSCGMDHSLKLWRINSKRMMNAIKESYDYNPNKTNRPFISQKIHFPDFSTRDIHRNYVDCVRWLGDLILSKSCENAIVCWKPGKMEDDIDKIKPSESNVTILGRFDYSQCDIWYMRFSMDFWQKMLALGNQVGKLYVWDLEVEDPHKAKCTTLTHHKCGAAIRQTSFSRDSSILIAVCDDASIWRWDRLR
Sequence of EZH2 (Q15022 whole entry partner): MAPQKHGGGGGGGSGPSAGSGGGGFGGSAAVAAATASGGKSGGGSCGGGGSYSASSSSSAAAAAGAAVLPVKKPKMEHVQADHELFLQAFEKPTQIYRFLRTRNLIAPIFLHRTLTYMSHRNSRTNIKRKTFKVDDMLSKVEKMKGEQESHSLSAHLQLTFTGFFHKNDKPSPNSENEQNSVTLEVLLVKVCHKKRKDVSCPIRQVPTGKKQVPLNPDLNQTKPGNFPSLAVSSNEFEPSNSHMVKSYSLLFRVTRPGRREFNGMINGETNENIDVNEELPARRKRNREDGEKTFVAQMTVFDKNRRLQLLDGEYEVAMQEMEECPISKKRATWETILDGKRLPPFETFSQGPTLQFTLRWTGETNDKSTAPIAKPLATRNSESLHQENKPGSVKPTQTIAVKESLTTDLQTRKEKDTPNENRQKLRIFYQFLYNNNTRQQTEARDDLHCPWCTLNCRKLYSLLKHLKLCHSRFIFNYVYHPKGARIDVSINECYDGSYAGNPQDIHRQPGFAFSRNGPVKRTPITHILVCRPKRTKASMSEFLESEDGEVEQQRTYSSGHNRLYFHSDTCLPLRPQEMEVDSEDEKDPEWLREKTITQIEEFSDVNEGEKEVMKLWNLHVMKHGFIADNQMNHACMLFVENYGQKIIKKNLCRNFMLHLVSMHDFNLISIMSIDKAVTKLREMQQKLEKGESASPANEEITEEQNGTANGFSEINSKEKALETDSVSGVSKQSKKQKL
Sequence of Y641N EZH2 (Q15910 whole entry Y641N): as the sequence (Q15910 whole entry) above, with Y641N counted along it
Sequence of Y641N EZH2 (O75530 whole entry partner): as the sequence (O75530 whole entry partner) above
Sequence of Y641N EZH2 (Q15022 whole entry partner): as the sequence (Q15022 whole entry partner) above

SMILES	IC50 (Y641N EZH2) [nM]	IC50 (EZH2; [2]) [nM]	IC50 (Y641N EZH2; [3]) [nM]	IC50 (EZH2; [4]) [nM]	other results
COc1cc(C)[nH]c(=O)c1CNC(=O)c1c(C)n(C(C)C(C)OC)c2ncccc12 (single isomer, unassigned) [Compound 266, N-((4-methoxy-6-methyl-2-oxo-1,2-dihydropyridin-3-yl)methyl)-1-((2R or 2S, 3R or 3S)-3-methoxybutan-2-yl)-2-methyl-1H-pyrrolo[2,3-b]pyridine-3-carboxamide]	100 to 1000	–	–	–	–
COc1cc(C)[nH]c(=O)c1CNC(=O)c1c(C)n(C(C)C2CCN(S(C)(=O)=O)CC2)c2ccccc12 (single isomer, unassigned) [Compound 336, (R or S)-N-((4-methoxy-6-methyl-2-oxo-1,2-dihydropyridin-3-yl)methyl)-2-methyl-1-(1-(1-(methylsulfonyl)piperidin-4-yl)ethyl)-1H-indole-3-carboxamide]	–	< 100	< 100	–	–
COc1cc(C)[nH]c(=O)c1CNC(=O)c1c(C)n(C(C)C2CCN(C(=O)C(C)(C)O)CC2)c2ccccc12 (single isomer, unassigned) [Compound 337, (R or S)-1-(1-(1-(2-hydroxy-2-methylpropanoyl)piperidin-4-yl)ethyl)-N-((4-methoxy-6-methyl-2-oxo-1,2-dihydropyridin-3-yl)methyl)-2-methyl-1H-indole-3-carboxamide]	–	< 100	< 100	–	–
COc1cc(C)[nH]c(=O)c1CNC(=O)c1c(C)n(C(C)C2CCN(C3COC3)CC2)c2ccccc12 (single isomer, unassigned) [Compound 341, (R or S)-N-((4-methoxy-6-methyl-2-oxo-1,2-dihydropyridin-3-yl)methyl)-2-methyl-1-(1-(1-(oxetan-3-yl)piperidin-4-yl)ethyl)-1H-indole-3-carboxamide]	< 100	–	–	< 100	–
COc1cc(C)[nH]c(=O)c1CNC(=O)c1c(C)n(C(C)C2CCN(C(=O)C(C)C)CC2)c2ccccc12 (single isomer, unassigned) [Compound 342, (R or S)-1-(1-(1-isobutyrylpiperidin-4-yl)ethyl)-N-((4-methoxy-6-methyl-2-oxo-1,2-dihydropyridin-3-yl)methyl)-2-methyl-1H-indole-3-carboxamide]	–	< 100	< 100	–	–
Cc1cc(OC(F)F)c(CNC(=O)c2c(C)n(C(C)C3CCN(S(C)(=O)=O)CC3)c3ccccc23)c(=O)[nH]1 (single isomer, unassigned) [Compound 344, (R or S)-N-((4-(difluoromethoxy)-6-methyl-2-oxo-1,2-dihydropyridin-3-yl)methyl)-2-methyl-1-(1-(1-(methylsulfonyl)piperidin-4-yl)ethyl)-1H-indole-3-carboxamide]	–	< 100	< 100	–	–
COCCN1CCC(C(C)n2c(C)c(C(=O)NCc3c(OC)cc(C)[nH]c3=O)c3ccccc32)CC1 (single isomer, unassigned) [Compound 359, (R or S)-N-((4-methoxy-6-methyl-2-oxo-1,2-dihydropyridin-3-yl)methyl)-1-(1-(1-(2-methoxyethyl)piperidin-4-yl)ethyl)-2-methyl-1H-indole-3-carboxamide]	< 100	–	–	< 100	–
COc1cc(C)[nH]c(=O)c1CNC(=O)c1c(C)n(C(C)C2CCN(CC(F)F)CC2)c2ccccc12 (single isomer, unassigned) [Compound 362, (R or S)-1-(1-(1-(2,2-difluoroethyl)piperidin-4-yl)ethyl)-N-((4-methoxy-6-methyl-2-oxo-1,2-dihydropyridin-3-yl)methyl)-2-methyl-1H-indole-3-carboxamide]	–	–	–	–	TGI (%) [1]: 92.75%; T/C (%) [1]: 22.59%; Tumor Size (mm3) on day 25 [1]: 385 ± 66 mm3; Significance [1]: *** (*** p < 0.001)
COc1cc(C)[nH]c(=O)c1CNC(=O)c1c(C)n(C(C)C2CCN(CC(F)(F)F)CC2)c2ccccc12 (single isomer, unassigned) [Compound 365, (R or S)-N-((4-methoxy-6-methyl-2-oxo-1,2-dihydropyridin-3-yl)methyl)-2-methyl-1-(1-(1-(2,2,2-trifluoroethyl)piperidin-4-yl)ethyl)-1H-indole-3-carboxamide]	–	–	–	–	TGI (%) [1]: 97.25%; T/C (%) [1]: 18.72%; Tumor Size (mm3) on day 25 [1]: 319 ± 67 mm3; Significance [1]: *** (*** p < 0.001)
CCc1cc(C)[nH]c(=O)c1CNC(=O)c1c(C)n(C(C)C2CCN(C)CC2)c2ccccc12 (single isomer, unassigned) [Compound 366, (R or S)-N-((4-ethyl-6-methyl-2-oxo-1,2-dihydropyridin-3-yl)methyl)-2-methyl-1-(1-(1-methylpiperidin-4-yl)ethyl)-1H-indole-3-carboxamide]	< 100	–	–	< 100	–
Cc1cc(C)c(CNC(=O)c2c(C)n(C(C)C3CCN(C4COC4)CC3)c3ccccc23)c(=O)[nH]1 (single isomer, unassigned) [Compound 375, (R or S)-N-((4,6-dimethyl-2-oxo-1,2-dihydropyridin-3-yl)methyl)-2-methyl-1-(1-(1-(oxetan-3-yl)piperidin-4-yl)ethyl)-1H-indole-3-carboxamide]	< 100	–	–	< 100	–
